In article PMC10041561 (JID Innovations, 2022):

Columns and labels:
[1] = target: T1, PTGS2 (COX-2) (Homo sapiens, UniProt P35354); test: PTGS2; format: biochemical, bovine/human; details: COX-2 Inhibition Mean IC50, mean of replicates 1-2 (Fig 16g)
T1 sequence (P35354 18-604): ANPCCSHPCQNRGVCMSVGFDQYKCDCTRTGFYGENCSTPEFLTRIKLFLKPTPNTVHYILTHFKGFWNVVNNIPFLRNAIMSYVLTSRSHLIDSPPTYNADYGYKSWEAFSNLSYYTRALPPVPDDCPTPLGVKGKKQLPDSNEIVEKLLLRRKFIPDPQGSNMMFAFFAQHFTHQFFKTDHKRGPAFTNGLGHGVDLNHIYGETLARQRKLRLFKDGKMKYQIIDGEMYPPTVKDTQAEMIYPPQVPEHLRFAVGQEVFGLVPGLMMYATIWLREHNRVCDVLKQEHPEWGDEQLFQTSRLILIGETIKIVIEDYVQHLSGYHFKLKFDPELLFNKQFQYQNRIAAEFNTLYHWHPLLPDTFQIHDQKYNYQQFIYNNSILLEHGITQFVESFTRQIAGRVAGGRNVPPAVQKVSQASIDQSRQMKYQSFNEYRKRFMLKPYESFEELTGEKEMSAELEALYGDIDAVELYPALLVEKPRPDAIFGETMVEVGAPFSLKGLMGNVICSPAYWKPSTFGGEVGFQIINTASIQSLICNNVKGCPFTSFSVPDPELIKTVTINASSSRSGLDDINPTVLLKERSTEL

[2] = tested on: reconstituted human epidermis (RHE) tissues; test: Cortisol in RHE-conditioned medium; format: cell-based; details: 48 hours, with or without cell viability standardization
[3] = tested on: reconstituted human epidermis (RHE) tissues; test: IL-8 levels in RHE-conditioned medium; format: cell-based; details: 48 hours
[4] = tested on: TNF-stimulated neonatal human epidermal KCs; test: Microarray gene expression in TNF-stimulated keratinocytes; format: cell-based
[5] = tested on: CB1 receptor; details: ref Vučković et al., 2018; cited from earlier work
[6] = tested on: CB2 receptor; details: ref Vučković et al., 2018; cited from earlier work
[7] = ref Nelson et al., 2020; cited from earlier work
[8] = ref Jaidee et al., 2021; cited from earlier work

| SMILES | IC50 [1] [µM] | cortisol levels in RHE-conditioned medium [2] | IL-8 levels in RHE-conditioned medium [3] | average increase in the expression of unhealthy skin signature genes ([4]; TNF-stimulated KCs) [%] | number of genes decreased ([4]; vs TNF, FDR < 0.10 with FC < 0.80) [genes] | number of genes increased ([4]; vs TNF, FDR < 0.10 with FC > 1.25) [genes] | number of genes with altered expression ([4]; vs TNF, FDR < 0.10 with FC > 1.25 or FC < 0.80) [genes] | affinity for the CB1 receptor [5] | affinity for the CB2 receptor [6] | octanol-water partition coefficient [7] | stability at room temperature [8] |
| --- | --- | --- | --- | --- | --- | --- | --- | --- | --- | --- | --- |
| C=C[C@@](C)(/C=C/c1ccc(O)cc1)CCC=C(C)C [BAK, bakuchiol] | 12.9 | significantly decreased cortisol levels | decreased IL-8 | – | – | – | – | – | – | – | – |
| C=C(C)[C@@H]1CCC(C)=C[C@H]1c1c(O)cc(CCCCC)cc1O [CBD, cannabidiol] | – | not observed | – | 5 | 114 | 205 | 319 | little affinity | little affinity | high | unstable at room temperature |
